Test system: 565726-208-R1-J5-PDC complex spheroids, growth inhibition
Test: Anticancer human tumor 565726-208-R1-J5-PDC patient-derived pancreatic adenocarcinoma cell line growth inhibition [RAS]
Settings: for viability, T/C: stronger effect = lower value
Procedure, shortened: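 Multi-cell-type spheroids: tumor cells plus HUVEC endothelial cells and mesenchymal stem cells. RAS-pathway inhibitors were combined with targeted agents, each dosed in half-log steps down from clinical Cmax, or from 10 microM when Cmax was unknown.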

[1] = curve of first compound, second compound 0.0316 µM
[2] = curve of first compound, second compound 0.1 µM
[3] = curve of first compound, second compound 0.316 µM
[4] = curve of first compound, second compound 1 µM
[5] = second compound 0.0316 µM, first compound 0.00316 µM
[6] = second compound 0.0316 µM, first compound 0.01 µM
[7] = second compound 0.0316 µM, first compound 0.0316 µM
[8] = second compound 0.0316 µM, first compound 0.1 µM
[9] = second compound 0.0316 µM, first compound 0.316 µM
[10] = second compound 0.0316 µM, first compound 1 µM
[11] = second compound 0.1 µM, first compound 0.00316 µM
[12] = second compound 0.1 µM, first compound 0.01 µM
[13] = second compound 0.1 µM, first compound 0.0316 µM
[14] = second compound 0.1 µM, first compound 0.1 µM
[15] = second compound 0.1 µM, first compound 0.316 µM
[16] = second compound 0.1 µM, first compound 1 µM
[17] = second compound 0.316 µM, first compound 0.00316 µM
[18] = second compound 0.316 µM, first compound 0.01 µM
[19] = second compound 0.316 µM, first compound 0.0316 µM
[20] = second compound 0.316 µM, first compound 0.1 µM
[21] = second compound 0.316 µM, first compound 0.316 µM
[22] = second compound 0.316 µM, first compound 1 µM
[23] = second compound 1 µM, first compound 0.00316 µM
[24] = second compound 1 µM, first compound 0.01 µM
[25] = second compound 1 µM, first compound 0.0316 µM
[26] = second compound 1 µM, first compound 0.1 µM
[27] = second compound 1 µM, first compound 0.316 µM
[28] = second compound 1 µM, first compound 1 µM
[29] = curve of first compound, second compound 0.00316 µM
[30] = curve of first compound, second compound 0.01 µM
[31] = second compound 0.00316 µM, first compound 0.00316 µM
[32] = second compound 0.00316 µM, first compound 0.01 µM
[33] = second compound 0.00316 µM, first compound 0.0316 µM
[34] = second compound 0.00316 µM, first compound 0.1 µM
[35] = second compound 0.01 µM, first compound 0.00316 µM
[36] = second compound 0.01 µM, first compound 0.01 µM
[37] = second compound 0.01 µM, first compound 0.0316 µM
[38] = second compound 0.01 µM, first compound 0.1 µM
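Further: spheroids exposed to compounds for seven days before readout.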
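Wherever viability, T/C is given: 100% = DMSO vehicle control viability.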

With `C=CC(=O)N1CCN(c2nc(OCC3CCCN3C)nc3c(F)c(-c4nc(N)cc(C)c4C(F)(F)F)c(Cl)cc23)C(C)C1` (stereo not drawn) + C#Cc1c(F)ccc2cc(O)cc(-c3ncc4c(N5CC6CCC(C5)N6)nc(OCC56CCCN5CC(F)C6)nc4c3F)c12 the IC50 [1] was > 1 µM, the IC50 [2] was > 1 µM and the IC50 [3] was > 1 µM. The IC50 [4] was > 1 µM, the IC50 (curve of first compound, second compound 3.16 µM) was > 1 µM and the IC50 (curve of first compound, second compound 10 µM) was > 1 µM. It also gave a viability, T/C [5] of 95.7%, a viability, T/C [6] of 138% and a viability, T/C [7] of 98.9%. For the same compound, the viability, T/C [8] was 103%, the viability, T/C [9] was 87% and the viability, T/C [10] was 104%. It also gave a viability, T/C [11] of 101%, a viability, T/C [12] of 124% and a viability, T/C [13] of 90.8%. For the same compound, the viability, T/C [14] was 94.2%, the viability, T/C [15] was 110% and the viability, T/C [16] was 106%. The viability, T/C [17] was 94.2%, the viability, T/C [18] was 132% and the viability, T/C [19] was 84.7%. The viability, T/C [20] was 107%, the viability, T/C [21] was 87.7% and the viability, T/C [22] was 113%. It also gave a viability, T/C [23] of 88.8%, a viability, T/C [24] of 113% and a viability, T/C [25] of 81.3%. It also gave a viability, T/C [26] of 77.1%, a viability, T/C [27] of 82.8% and a viability, T/C [28] of 84.2%. For the same compound, the viability, T/C (second compound 3.16 µM, first compound 0.00316 µM) was 65.5%, the viability, T/C (second compound 3.16 µM, first compound 0.01 µM) was 88.7% and the viability, T/C (second compound 3.16 µM, first compound 0.0316 µM) was 70%. For the same compound, the viability, T/C (second compound 3.16 µM, first compound 0.1 µM) was 65.6%, the viability, T/C (second compound 3.16 µM, first compound 0.316 µM) was 83% and the viability, T/C (second compound 3.16 µM, first compound 1 µM) was 93.5%. The viability, T/C (second compound 10 µM, first compound 0.00316 µM) was 52.3%, the viability, T/C (second compound 10 µM, first compound 0.01 µM) was 73.5% and the viability, T/C (second compound 10 µM, first compound 0.0316 µM) was 78.3%. It also gave a viability, T/C (second compound 10 µM, first compound 0.1 µM) of 72.4%, a viability, T/C (second compound 10 µM, first compound 0.316 µM) of 69.5% and a viability, T/C (second compound 10 µM, first compound 1 µM) of 71%.
For `O=C(c1ccc(F)c(F)c1Nc1ccc(I)cc1F)N1CC(O)([C@@H]2CCCCN2)C1` + C=CC(=O)N1CCN(c2nc(OCC3CCCN3C)nc3c(F)c(-c4nc(N)cc(C)c4C(F)(F)F)c(Cl)cc23)C(C)C1, the IC50 [29] was 0.46 µM, the IC50 [30] was 0.29 µM and the IC50 [1] was > 1 µM. For the same compound, the IC50 [2] was 0.365 µM, the IC50 [3] was > 1 µM and the IC50 [4] was 0.759 µM. The viability, T/C [31] was 105%, the viability, T/C [32] was 142% and the viability, T/C [33] was 73.3%. It also gave a viability, T/C [34] of 78.3%, a viability, T/C (second compound 0.00316 µM, first compound 0.316 µM) of 58.1% and a viability, T/C (second compound 0.00316 µM, first compound 1 µM) of 39.1%. It also gave a viability, T/C [35] of 120%, a viability, T/C [36] of 141% and a viability, T/C [37] of 88.3%. It also gave a viability, T/C [38] of 71.3%, a viability, T/C (second compound 0.01 µM, first compound 0.316 µM) of 56.6% and a viability, T/C (second compound 0.01 µM, first compound 1 µM) of 30.1%. It also gave a viability, T/C [5] of 146%, a viability, T/C [6] of 174% and a viability, T/C [7] of 75.4%. For the same compound, the viability, T/C [8] was 82.4%, the viability, T/C [9] was 56.4% and the viability, T/C [10] was 38.1%. The viability, T/C [11] was 138%, the viability, T/C [12] was 137% and the viability, T/C [13] was 91.1%. It also gave a viability, T/C [14] of 69.8%, a viability, T/C [15] of 60% and a viability, T/C [16] of 36.3%. The viability, T/C [17] was 154%, the viability, T/C [18] was 139% and the viability, T/C [19] was 73.1%. The viability, T/C [20] was 71.3%, the viability, T/C [21] was 56.7% and the viability, T/C [22] was 38.9%. It also gave a viability, T/C [23] of 137%, a viability, T/C [24] of 137% and a viability, T/C [25] of 82.2%. The viability, T/C [26] was 85.9%, the viability, T/C [27] was 61.2% and the viability, T/C [28] was 50.3%.
For `CCn1c(-c2cc(N3CCN(C)CC3)cnc2C(C)OC)c2c3cc(ccc31)-c1csc(n1)CC(NC(=O)C1CC1C)C(=O)N1CCCC(N1)C(=O)OCC(C)(C)C2` (stereo not drawn), the viability, T/C (compound 0.000949 µM) was 65% [middle of 8 runs], the viability, T/C (compound 0.003 µM) was 55.2% [middle of 8 runs] and the viability, T/C (compound 0.00949 µM) was 43.7% [middle of 8 runs]. The viability, T/C (compound 0.03 µM) was 33.3% [middle of 7 runs], the viability, T/C (compound 0.0949 µM) was 27.4% [middle of 7 runs] and the viability, T/C (compound 0.3 µM) was 24.9% [middle of 8 runs]. For the same compound, the IC50 (compound alone, run of 07/09/2024) was 4 nM [middle of 8 runs].
`CC(C)n1nc(-c2ccc3oc(N)nc3c2)c2c(N)ncnc21` + C=CC(=O)N1CCN(c2nc(OCC3CCCN3C)nc3c(F)c(-c4nc(N)cc(C)c4C(F)(F)F)c(Cl)cc23)C(C)C1 was tested, and the IC50 [29] was 0.1 µM, the IC50 [30] was 0.0252 µM and the IC50 [1] was 0.0449 µM. The IC50 [2] was 0.0591 µM, the IC50 [3] was 0.1 µM and the IC50 [4] was 0.0809 µM. It also gave a viability, T/C (second compound 0.00316 µM, first compound 0.000316 µM) of 93%, a viability, T/C (second compound 0.00316 µM, first compound 0.001 µM) of 138% and a viability, T/C [31] of 70.2%. It also gave a viability, T/C [32] of 62.3%, a viability, T/C [33] of 57.1% and a viability, T/C [34] of 42%. For the same compound, the viability, T/C (second compound 0.01 µM, first compound 0.000316 µM) was 93.5%, the viability, T/C (second compound 0.01 µM, first compound 0.001 µM) was 132% and the viability, T/C [35] was 96.7%. For the same compound, the viability, T/C [36] was 68.2%, the viability, T/C [37] was 48.2% and the viability, T/C [38] was 39.5%. The viability, T/C (second compound 0.0316 µM, first compound 0.000316 µM) was 99.8%, the viability, T/C (second compound 0.0316 µM, first compound 0.001 µM) was 148% and the viability, T/C [5] was 81.7%. It also gave a viability, T/C [6] of 78.3%, a viability, T/C [7] of 55.5% and a viability, T/C [8] of 41.1%. For the same compound, the viability, T/C (second compound 0.1 µM, first compound 0.000316 µM) was 107%, the viability, T/C (second compound 0.1 µM, first compound 0.001 µM) was 121% and the viability, T/C [11] was 86.5%. For the same compound, the viability, T/C [12] was 70.8%, the viability, T/C [13] was 65.7% and the viability, T/C [14] was 40.3%. It also gave a viability, T/C (second compound 0.316 µM, first compound 0.000316 µM) of 87.1%, a viability, T/C (second compound 0.316 µM, first compound 0.001 µM) of 126% and a viability, T/C [17] of 70.7%. It also gave a viability, T/C [18] of 68.7%, a viability, T/C [19] of 49.7% and a viability, T/C [20] of 46%. The viability, T/C (second compound 1 µM, first compound 0.000316 µM) was 79.9%, the viability, T/C (second compound 1 µM, first compound 0.001 µM) was 96.3% and the viability, T/C [23] was 97.7%. The viability, T/C [24] was 65.6%, the viability, T/C [25] was 65% and the viability, T/C [26] was 45.2%.

Source: PubChem BioAssay AID2060899 (Molecular Pharmacology Branch, DTP, NCI, 2025)
